Reference: patent US6762176B1, “2-aminopyridine derivatives, their use as medicines and pharmaceutical compositions containing them” (Societe de Consells de Recherches et D'Applications …, priority 1998, dated 2004)
Counter-ions that a name gives are not always drawn.

melting point [°C] | Compound
131 to 136 | Cc1cc(N)nc(CCCCNC(=O)C2(C)CCc3c(C)c(O)c(C)c(C)c3O2)c1.O=C(O)/C=C/C(=O)O (centres unmarked)
210 to 212 | Cc1c(C)c2c(c(C)c1O)CCC(C)(C(=O)N1CCN(CCC#Cc3ccc(N)nc3)CC1)O2.Cl (centres unmarked)
221 to 223 | Cc1c(C)c2c(c(C)c1O)CCC(C)(C(=O)N1CCN(CCCCc3ccc(N)nc3)CC1)O2.Cl (centres unmarked)
60 to 62 | COc1cc(C=CCNCCCCc2cc(C)cc(N)n2)ccc1O (as salt: hydrochloride) [Example 26, 6-amino-N-[13-(4-hydroxy-3-metboxy-phenyl)-2-propenyl]4-methyl-2-pyridinebutanamine hydrochloride]
176 to 178 | Cc1cc(N)nc(CCCCNC(=O)c2ccc3c(c2)OCO3)c1.Cl [Example 23, N-[(6-amino-4-methyl-2-pyridinyl)butyl]-1,3-benzodioxole-5-carboxamide hydrochloride]
224 to 226 | Cc1cc(N)nc(CCCCNCc2ccc3c(c2)OCO3)c1.O=C(O)/C=C/C(=O)O [Example 29, N-[4-(6-amino-4-methyl-2-pyridinyl)butyl]-N-(1,3-benzodioxole-5-ylmethyl)amine fumarate]
163 to 165 | Cc1cc(N)nc(CCCCNC/C=C/c2ccccc2)c1.O=C(O)/C=C/C(=O)O [Example 30, N-[4-(6-amino-4-methyl-2-pyridinyl)butyl]-N-[(E)-3-phenyl-2-propenyl]amine fumarate]
111 to 113 | Cc1cc(N)nc(CCCCNC(=O)/C=C/c2ccc3c(c2)OCO3)c1.O=C(O)/C=C/C(=O)O [Example 31, (E)-N-[4-(6-amino-4-methyl-2-pyridinyl)butyl]-3-(1,3-benzodioxole-5-yl)-2-propenamide fumarate]
